This assay has as its system mice given ethanol alcohol (alcohol's damage to the liver). In words: Liver protection in mice given ethanol alcohol. In kind it is in vivo, Kunming mice. The conditions noted are these: Tiopronin 50 mg/kg/day, ethanol 3 g/kg/day, after 25 days, blood. The procedure:
To study the liver protection effect of the Lilac Ginkgo Brick Tea of Example 1, the following experiments were conduct.
Male Kunming mice, 50 SPF grades, 5 weeks old, 30-35 g, were randomly divided into Blank Group, Control Group, Tiopronin Positive Control Group, Low Dosage Group, and High Dosage Group. 100 g of Lilac Ginkgo Brick Tea was boiled in 1 L water, filtered, and concentrated to 50 mL concentrated Lilac Ginkgo Brick Tea solution. Blank Group and Control Group were given water and regular food; Tiopronin Group was given 50 mg/kg/day Tiopronin; and Low Dosage Group and High Dosage Group were given 20 mL/kg/day and 50 mL/kg/day concentrated Lilac Ginkgo Brick Tea solution, respectively, and regular food. Control Group, Tiopronin Positive Control Group, Low Dosage Group, and High Dosage Group were given 3 g/kg/day (0.01 mL/g) ethanol alcohol. Blank Group was given equal volume water. After 25 days, the mice were fasted for 2 hours, and blood samples were taken to determine alanine aminotransferase (ALT), aspartate aminotransferase (AST), and triglyceride (TG) levels.

Experimental findings from US20200353027A1, “A LILAC GINKGO BRICK TEA WITH LIPID LOWERING AND LIVER PROTECTION ACTIVITIES AND A METHOD OF PREPARING THE SAME” (SHAANXI UNIVERSITY OF SCIENCE AND TECHNOLOGY, priority 2019, published 2020) are described below.

Each structure is given as a SMILES string.

With `CC(S)C(=O)NCC(=O)O` (stereo not drawn) [Tiopronin], the “ALT (alanine aminotransferase)” value came out at 64.80 ± 10.47 U/L, the “AST (aspartate aminotransferase)” value was 140.39 ± 20.92 U/L and the “TG (triglyceride)” value worked out at 1.295 ± 0.43 mmol/L.
